Values after ≈ are worked out from the molar mass of the structure shown. Values belong to the compound of their own block, whether it stands above or below them. Residues, ends and D or L forms follow the SMILES beside them.
Experiments:
Escherichia coli [1] = experiment: Antibacterial activity against Escherichia coli assessed as reduction in bacterial growth by broth micro-dilution method; assay type: functional
Streptococcus pneumoniae = experiment: Antibacterial activity against Streptococcus pneumoniae ATCC 49619 assessed as reduction in bacterial growth; assay type: functional
Staphylococcus aureus [2] = experiment: Antibacterial activity against methicillin-resistant Staphylococcus aureus ATCC 33591 assessed as reduction in bacterial growth incubated for 24 hrs by agar plate method; assay type: functional
Escherichia coli [3] = experiment: Antimicrobial activity against Escherichia coli ATCC 25922 assessed as reduction in microbial growth incubated for 24 hrs by CLSI based broth microdilution method; assay type: functional
J774.A1 [4] = experiment: Antiinflammatory activity in mouse J774.A1 cells assessed as decrease in LPS-induced IL-6 secretion at 20 uM preincubated for 30 mins followed by LPS stimulation and measured after 24 hrs by ELISA; assay type: functional; set-up: scale not given: the % may be the effect or the level left; conditions: time 1470 min, 24.5 h
Acinetobacter baumannii = experiment: Antibacterial activity against Acinetobacter baumannii ATCC 19606 assessed as bacterial growth inhibition at 32 ug/ml measured after 16 hrs by broth microdilution method; assay type: functional; conditions: dose 32 µg/ml
J774.A1 [5] = experiment: Antiinflammatory activity against mouse J774.A1 cells assessed as inhibition of LPS-stimulated TNFalpha release measured at 10 uM after 30 mins by ELISA relative to control; assay type: functional; set-up: scale not given: the % may be the effect or the level left; conditions: 0.5 h
[6] = Hemolytic activity in human RBC assessed as hemolysis up to 100 microg/ml measured after 1 hr; assay type: toxicity, cell-based, Erythrocyte; conditions: red blood cells (erythrocytes), dose < 100 µg/ml
Escherichia coli [7] = experiment: Antibacterial activity against Escherichia coli ATCC 25922 assessed as inhibition of bacterial growth incubated for 16 to 18 hrs by broth microdilution method; assay type: functional; conditions: time 16-18 hrs
Staphylococcus aureus [8] = experiment: Antibacterial activity against Staphylococcus aureus ATCC 33591 assessed as reduction in bacterial growth; assay type: functional
[9] = system: Staphylococcus epidermidis; experiment: Antibacterial activity against Staphylococcus epidermidis assessed as reduction in microbial growth incubated for 24 hrs by broth micro-dilution method; assay type: functional
Pseudomonas aeruginosa = experiment: Antibacterial activity against multi-drug resistant Pseudomonas aeruginosa assessed as reduction in bacterial growth by broth microdilution method; assay type: functional
Escherichia coli [10] = experiment: Antibacterial activity against Escherichia coli ATCC 25922 assessed as reduction in bacterial growth by broth microdilution method; assay type: functional
RAW264.7 [11] = experiment: Antiinflammatory activity in LPS-induced mouse RAW264.7 cells assessed as reduction in TNF alpha level at 20 ug/ml measured after 72 hrs by ELISA assay relative to control; assay type: functional; set-up: scale not given: the % may be the effect or the level left; conditions: dose 20 µg/ml
RAW264.7 [12] = experiment: Anti-inflammatory activity against mouse RAW264.7 cells assessed as inhibition of LPS-induced NO production at 20 ug/ml relative to control; assay type: functional; set-up: scale not given: the % may be the effect or the level left; conditions: dose 20 µg/ml
RAW264.7 [13] = experiment: Anti-inflammatory activity in mouse RAW264.7 cells assessed as reduction in LPS-induced IL-6 mRNA expression at 20 ug/ml incubated for 24 hrs by qPCR analysis relative to control; assay type: functional; set-up: scale not given: the % may be the effect or the level left; conditions: dose 20 µg/ml
RAW264.7 [14] = experiment: Immunosuppressive activity in LPS-treated mouse RAW264.7 cells assessed as inhibition of MCP-1 level at 20 ug/ml incubated for 24 hrs by ELISA analysis relative to control; assay type: functional; set-up: scale not given: the % may be the effect or the level left; conditions: dose 20 µg/ml
RAW264.7 [15] = experiment: Anti-inflammatory activity against mouse RAW264.7 cells assessed as inhibition of LPS-induced NO production at 10 uM incubated for 24 hrs by Griess reagent based analysis relative to control; assay type: functional; set-up: scale not given: the % may be the effect or the level left
RAW264.7 [16] = experiment: Antiinflammatory activity against LPS-stimulated mouse RAW264.7 cells assessed as inhibition of TNFalpha production at 10 uM preincubated for 27 hrs followed by LPS stimulation and measured after 12 hrs by ELISA analysis relative to control; assay type: functional; set-up: scale not given: the % may be the effect or the level left; conditions: time 39 hrs
Staphylococcus aureus [17] = experiment: Antibacterial activity against Staphylococcus aureus clinical isolate assessed as reduction in cell growth incubated for 48 hrs by broth micro-dilution method; assay type: functional
Enterococcus faecium = experiment: Antibacterial activity against Enterococcus faecium clinical isolate assessed as reduction in cell growth incubated for 48 hrs by broth micro-dilution method; assay type: functional
Klebsiella pneumoniae = experiment: Antibacterial activity against Klebsiella pneumoniae clinical isolate assessed as reduction in cell growth incubated for 48 hrs by broth micro-dilution method; assay type: functional
RAW264.7 [18] = experiment: Anti-inflammatory activity against mouse RAW264.7 cells assessed as reduction in LPS-induced TNFalpha production relative to control; assay type: functional; set-up: scale not given: the % may be the effect or the level left
[19] = Acute toxicity in Kunming mouse assessed as survival rate at 160 ug/kg, ip administered once daily for 14 days relative to control; assay type: organism-based; conditions: in vivo, 0.16 mg/kg, time 14 day, read-out: Activity
[20] = Acute toxicity in Kunming mouse assessed as survival rate at 40 ug/kg, ip administered once daily for 14 days relative to control; assay type: organism-based; conditions: in vivo, 0.04 mg/kg, time 14 day, read-out: Activity
RAW264.7 [21] = experiment: Anti-inflammatory activity against mouse RAW264.7 cells assessed as reduction in LPS-induced IL-6 mRNA production relative to control; assay type: functional; set-up: scale not given: the % may be the effect or the level left
RAW264.7 [22] = experiment: Antiinflammatory activity against LPS-induced mouse RAW264.7 cells assessed as reduction in IL-6 mRNA expression incubated for 24 hrs by RT-PCR analysis relative to control; assay type: functional; set-up: scale not given: the % may be the effect or the level left
RAW264.7 [23] = experiment: Antiinflammatory activity against mouse RAW264.7 cells assessed as reduction in TNF alpha production incubated for 24 hrs by ELISA method relative to control; assay type: functional; set-up: scale not given: the % may be the effect or the level left
[24] = Acute toxicity in Kunming mouse assessed as survival rate at 80 ug/kg, ip administered once daily for 14 days relative to control; assay type: organism-based; conditions: in vivo, 0.08 mg/kg, time 14 day, read-out: Activity

MIC (Escherichia coli [1]): 3.13 µg/mL (≈ 5.23 µM)
Compound: NCCCOc1cc(OCCCN)cc(-c2cc(-c3ccccc3)cc(-c3cc(OCCCN)cc(OCCCN)c3)c2)c1

MIC (Streptococcus pneumoniae): 4.1 µM (≈ 1.75 µg/mL)
Compound: CCCCCCCCCCN(Cc1cccc2ccccc12)C(=O)[C@@H](N)CCCCN

Compound: CCCCCCN(Cc1ccc(-c2ccc(CN(CCCCCC)C(=O)[C@@H](N)CCCCN)cc2)cc1)C(=O)[C@@H](N)CCCCN
MIC (Staphylococcus aureus [2]): 3.1 µg/mL (≈ 4.87 µM)

MIC (Escherichia coli [3]): 1 µM
Compound: CCCCCCCCCCCCCCCC(=O)N(CC(N)=O)C[C@H](CCCCN)NC(=O)N1C[C@H](Cc2ccccc2)NC(=O)CN(C(=O)CCCN)C[C@H](Cc2ccccc2)NC(=O)CN(C(=O)CCCN)C[C@H](Cc2ccccc2)NC(=O)CN(C(=O)CCCN)C[C@H](Cc2ccccc2)NC(=O)CCC1=O

MIC (Acinetobacter baumannii): 2 µM (≈ 3.73 µg/mL)
Compound: CC[C@H](C)[C@@H](NC(=O)[C@@H](CCCNC(=N)N)NC(=O)[C@@H](CCCNC(=N)N)NC(=O)[C@@H](CC(C)C)NC(=O)[C@@H](Cc1c[nH]c2ccccc12)NC(=O)[C@@H](C)NC(=O)[C@@H](CCCCN)NC(=O)[C@H](NC(=O)[C@@H](CCCNC(=N)N)NC(=O)[C@@H](CCCNC(=N)N)NC(=O)[C@@H](CC(C)C)NC(=O)[C@H](N)Cc1c[nH]c2ccccc12)[C@@H](C)CC)C(=O)N[C@H](CCCCN)C(=O)N[C@H](C)C(N)=O
Activity (J774.A1 [4]): 96.4% | Activity (J774.A1 [5]): 64.7%

MIC (Escherichia coli [7]): 0.9 µg/mL
Compound: CCOC(=O)[C@H](Cc1ccccc1)NC(=O)C[N+](C)(C)CCCCCCCCCCCC[N+](C)(C)CC(=O)N[C@H](Cc1ccccc1)C(=O)OCC
HC50 at 1 h [6]: 758 µg/mL

MIC (Staphylococcus aureus [8]): 2.4 µM (≈ 3.86 µg/mL) | MIC [9]: 0.6 µM
Compound: CCCCCCCCCCCCCCCC(=O)N(CCNC(=O)CN1C[C@H](Cc2ccccc2)NC(=O)[C@H](CCCCN)N(C(=O)CCc2ccccc2)CCNC(=O)[C@H](CCCCN)N(C(=O)CCc2ccccc2)CCNC(=O)[C@H](CCCCN)N(C(=O)CCc2ccccc2)CCNC(=O)CCC1=O)[C@@H](CCCCN)C(N)=O

Compound: CC[C@H](C)[C@H](NC(=O)[C@H](Cc1cnc[nH]1)NC(=O)[C@H](CO)NC(=O)[C@@H](NC(=O)[C@@H](NC(=O)[C@@H](NC(=O)[C@@H](NC(=O)[C@H](CCCNC(=N)N)NC(=O)[C@H](CC(C)C)NC(=O)[C@H](CCCCN)NC(=O)[C@H](CCC(=O)O)NC(=O)[C@H](CCCCN)NC(=O)[C@H](CC(C)C)NC(=O)[C@H](CCCCN)NC(=O)[C@H](CS)NC(=O)[C@H](CC(C)C)NC(=O)[C@H](Cc1ccccc1)NC(=O)[C@H](CC(N)=O)NC(=O)[C@H](CS)NC(=O)[C@@H](N)CCCCN)[C@@H](C)O)C(C)C)[C@@H](C)CC)[C@@H](C)O)C(=O)N[C@@H](CC(=O)O)C(=O)N[C@@H](CCCCN)C(=O)N[C@H](C(=O)N[C@@H](CC(C)C)C(=O)N[C@@H](CCCNC(=N)N)C(=O)N1CCC[C@H]1C(=O)N[C@@H](CCC(N)=O)C(=O)NCC(N)=O)C(C)C (H-KCNFLCKLKEKLRTVITSHIDKVLRPQG-NH2)
MIC (Pseudomonas aeruginosa): 37.5 µg/mL (≈ 11.5 µM) | MIC (Escherichia coli [10]): 4.69 µg/mL (≈ 1.44 µM) | Activity (RAW264.7 [11]): 60% | Activity (RAW264.7 [12]): 70% | Activity (RAW264.7 [13]): 86% | Activity (RAW264.7 [14]): 68%

Compound: CC(C)C[C@H](NC(=O)[C@H](Cc1c[nH]c2ccccc12)NC(=O)[C@H](CCCCN)NC(=O)[C@H](CCCCN)NC(=O)[C@H](Cc1c[nH]c2ccccc12)NC(=O)[C@H](CCCCN)NC(=O)[C@H](CCCCN)NC(=O)[C@H](Cc1c[nH]c2ccccc12)NC(=O)[C@H](CC(C)C)NC(=O)[C@@H](N)CCCCN)C(=O)N[C@@H](CCCCN)C(N)=O (H-KLWKKWKKWLK-NH2)
Activity (RAW264.7 [15]): 50%

Compound: CC[C@H](C)[C@H](NC(=O)[C@H](CCCNC(=N)N)NC(=O)[C@H](CCCCN)NC(=O)[C@@H](NC(=O)[C@@H](NC(=O)[C@H](CCCNC(=N)N)NC(=O)[C@@H](N)CCCCN)[C@@H](C)CC)C(C)C)C(=O)N[C@@H](CCCCN)C(=O)N[C@@H](CCCCN)C(=O)N[C@@H](Cc1c[nH]c2ccccc12)C(=O)N[C@@H](CC(C)C)C(=O)N[C@@H](CCCNC(=N)N)C(N)=O (H-KRIVKRIKKWLR-NH2)
Activity (RAW264.7 [16]): 74.2%

MIC (Staphylococcus aureus [17]): 5 µM (≈ 11.3 µg/mL) | MIC (Enterococcus faecium): 5 µM (≈ 11.3 µg/mL) | MIC (Klebsiella pneumoniae): 5 µM (≈ 11.3 µg/mL)
Compound: CC[C@H](C)[C@H](NC(=O)[C@H](Cc1c[nH]c2ccccc12)NC(=O)[C@H](CCCNC(=N)N)NC(=O)[C@H](CCC(N)=O)NC(=O)[C@@H](NC(=O)[C@H](Cc1c[nH]c2ccccc12)NC(=O)[C@H](CCCNC(=N)N)NC(=O)[C@@H](N)CCCNC(=N)N)C(C)C)C(=O)N[C@@H](CCCNC(=N)N)C(=O)N[C@@H](CCCNC(=N)N)C(=O)N[C@@H](Cc1c[nH]c2ccccc12)C(=O)N[C@@H](CCCNC(=N)N)C(=O)N[C@@H](CCCCN)C(=O)N[C@@H](Cc1c[nH]c2ccccc12)C(=O)N[C@H](C(=O)O)C(C)C (H-RRWVQRWIRRWRKWV-OH)

Compound: CC(C)C[C@H](NC(=O)CNC(=O)[C@H](Cc1ccccc1)NC(=O)[C@H](CCCNC(=N)N)NC(=O)[C@H](CCCNC(=N)N)NC(=O)CNC(=O)[C@H](Cc1cnc[nH]1)NC(=O)[C@H](CCCNC(=N)N)NC(=O)CNC(=O)[C@@H](NC(=O)[C@H](C)NC(=O)[C@@H](N)CO)C(C)C)C(=O)N[C@@H](CCCNC(=N)N)C(=O)N[C@@H](CCCCN)C(=O)N[C@@H](Cc1cnc[nH]1)C(=O)N[C@@H](CCCNC(=N)N)C(=O)N[C@@H](CCCCN)C(=O)N[C@@H](Cc1cnc[nH]1)C(=O)O (H-SAVGRHGRRFGLRKHRKH-OH)
Activity (RAW264.7 [18]): >50% | survival at 336 h [19]: 75% | survival at 336 h [20]: 10% | Activity (RAW264.7 [21]): >50% | Activity (RAW264.7 [22]): 46% | Activity (RAW264.7 [23]): 75% | survival at 336 h [24]: 70%

From ChEMBL document CHEMBL5356933, “Dual functional therapeutics: mitigating bacterial infection and associated inflammation” (RSC Med Chem, 2023)
